Source: US9518052B2, “Pyrazolopyridines and pyrazolopyrimidines” (Pfizer Inc., priority 2014, dated 2016)
Structures can show the parent of a compound that is named as a salt.

Key:
Type in all cases: biochemical
Conditions in all cases: Caliper assay at 1 mM ATP
TYK2 = TYK2 (Homo sapiens (Human), UniProt P29597); assay: JAK Caliper Enzyme Assay at 1 mM ATP (TYK2)
JAK1 = JAK1 (Homo sapiens (Human), UniProt P23458); assay: JAK Caliper Enzyme Assay at 1 mM ATP (JAK1)
JAK2 = JAK2 (Homo sapiens (Human), UniProt O60674); assay: JAK Caliper Enzyme Assay at 1 mM ATP (JAK2)
Sequence of JAK2 (O60674 whole entry, species assumed): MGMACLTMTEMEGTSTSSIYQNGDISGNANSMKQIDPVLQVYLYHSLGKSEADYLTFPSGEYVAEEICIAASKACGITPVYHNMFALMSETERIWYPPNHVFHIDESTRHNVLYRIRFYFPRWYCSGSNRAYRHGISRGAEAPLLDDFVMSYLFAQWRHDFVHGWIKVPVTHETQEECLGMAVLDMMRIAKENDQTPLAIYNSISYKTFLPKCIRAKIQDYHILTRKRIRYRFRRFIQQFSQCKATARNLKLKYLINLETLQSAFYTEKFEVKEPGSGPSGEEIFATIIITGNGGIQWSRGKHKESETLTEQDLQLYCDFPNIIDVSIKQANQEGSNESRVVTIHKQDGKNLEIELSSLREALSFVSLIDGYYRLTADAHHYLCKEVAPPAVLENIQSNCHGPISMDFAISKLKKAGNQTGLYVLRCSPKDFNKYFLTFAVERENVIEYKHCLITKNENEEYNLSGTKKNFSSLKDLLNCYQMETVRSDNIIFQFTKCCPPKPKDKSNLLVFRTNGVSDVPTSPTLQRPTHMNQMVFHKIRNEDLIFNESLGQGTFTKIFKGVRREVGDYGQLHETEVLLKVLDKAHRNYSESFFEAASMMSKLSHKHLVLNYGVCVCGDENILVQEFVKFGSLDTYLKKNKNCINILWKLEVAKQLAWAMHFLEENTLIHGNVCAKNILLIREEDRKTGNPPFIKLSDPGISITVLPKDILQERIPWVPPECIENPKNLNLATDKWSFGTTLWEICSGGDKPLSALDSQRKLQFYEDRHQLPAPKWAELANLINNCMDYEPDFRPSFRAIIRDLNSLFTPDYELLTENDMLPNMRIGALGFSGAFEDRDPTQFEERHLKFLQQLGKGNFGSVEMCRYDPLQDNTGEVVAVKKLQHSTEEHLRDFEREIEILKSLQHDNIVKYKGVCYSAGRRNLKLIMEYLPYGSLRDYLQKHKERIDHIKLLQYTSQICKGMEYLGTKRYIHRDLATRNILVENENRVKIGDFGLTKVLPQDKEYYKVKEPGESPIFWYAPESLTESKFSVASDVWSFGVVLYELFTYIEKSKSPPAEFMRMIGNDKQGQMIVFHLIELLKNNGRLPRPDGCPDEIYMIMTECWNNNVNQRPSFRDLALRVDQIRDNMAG

JAK3 = JAK3 (Homo sapiens (Human), UniProt P52333); assay: JAK Caliper Enzyme Assay at 1 mM ATP (JAK3)
Sequence of JAK3 (P52333 whole entry, species assumed): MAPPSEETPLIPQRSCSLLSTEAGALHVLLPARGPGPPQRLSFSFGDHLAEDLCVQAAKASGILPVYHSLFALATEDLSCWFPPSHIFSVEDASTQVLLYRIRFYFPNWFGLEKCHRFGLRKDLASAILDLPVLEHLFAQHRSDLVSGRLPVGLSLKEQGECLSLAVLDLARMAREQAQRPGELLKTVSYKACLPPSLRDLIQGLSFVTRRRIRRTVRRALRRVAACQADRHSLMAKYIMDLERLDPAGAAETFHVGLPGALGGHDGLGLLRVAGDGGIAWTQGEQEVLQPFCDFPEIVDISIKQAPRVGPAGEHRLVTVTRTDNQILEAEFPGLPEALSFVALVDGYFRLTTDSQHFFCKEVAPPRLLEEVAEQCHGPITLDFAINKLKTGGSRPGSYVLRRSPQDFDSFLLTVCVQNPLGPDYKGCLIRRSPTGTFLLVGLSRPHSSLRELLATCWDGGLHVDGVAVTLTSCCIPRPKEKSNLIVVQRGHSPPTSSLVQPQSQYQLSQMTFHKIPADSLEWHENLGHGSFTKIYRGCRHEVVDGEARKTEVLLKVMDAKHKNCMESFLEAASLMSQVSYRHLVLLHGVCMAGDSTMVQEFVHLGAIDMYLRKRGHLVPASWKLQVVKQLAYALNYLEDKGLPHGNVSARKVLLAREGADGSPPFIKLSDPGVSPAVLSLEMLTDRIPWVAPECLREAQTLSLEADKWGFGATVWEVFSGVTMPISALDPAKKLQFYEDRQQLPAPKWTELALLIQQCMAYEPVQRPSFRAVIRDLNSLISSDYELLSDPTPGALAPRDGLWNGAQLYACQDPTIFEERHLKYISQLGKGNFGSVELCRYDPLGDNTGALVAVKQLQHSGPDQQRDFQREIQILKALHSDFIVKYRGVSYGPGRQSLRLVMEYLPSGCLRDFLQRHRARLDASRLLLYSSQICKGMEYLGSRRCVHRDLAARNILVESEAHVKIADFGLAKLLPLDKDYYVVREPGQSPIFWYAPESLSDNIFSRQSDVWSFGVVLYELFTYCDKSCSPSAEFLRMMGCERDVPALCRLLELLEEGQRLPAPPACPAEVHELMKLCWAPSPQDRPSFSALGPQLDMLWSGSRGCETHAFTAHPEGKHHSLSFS

Sequence of TYK2 (P29597 whole entry, species assumed): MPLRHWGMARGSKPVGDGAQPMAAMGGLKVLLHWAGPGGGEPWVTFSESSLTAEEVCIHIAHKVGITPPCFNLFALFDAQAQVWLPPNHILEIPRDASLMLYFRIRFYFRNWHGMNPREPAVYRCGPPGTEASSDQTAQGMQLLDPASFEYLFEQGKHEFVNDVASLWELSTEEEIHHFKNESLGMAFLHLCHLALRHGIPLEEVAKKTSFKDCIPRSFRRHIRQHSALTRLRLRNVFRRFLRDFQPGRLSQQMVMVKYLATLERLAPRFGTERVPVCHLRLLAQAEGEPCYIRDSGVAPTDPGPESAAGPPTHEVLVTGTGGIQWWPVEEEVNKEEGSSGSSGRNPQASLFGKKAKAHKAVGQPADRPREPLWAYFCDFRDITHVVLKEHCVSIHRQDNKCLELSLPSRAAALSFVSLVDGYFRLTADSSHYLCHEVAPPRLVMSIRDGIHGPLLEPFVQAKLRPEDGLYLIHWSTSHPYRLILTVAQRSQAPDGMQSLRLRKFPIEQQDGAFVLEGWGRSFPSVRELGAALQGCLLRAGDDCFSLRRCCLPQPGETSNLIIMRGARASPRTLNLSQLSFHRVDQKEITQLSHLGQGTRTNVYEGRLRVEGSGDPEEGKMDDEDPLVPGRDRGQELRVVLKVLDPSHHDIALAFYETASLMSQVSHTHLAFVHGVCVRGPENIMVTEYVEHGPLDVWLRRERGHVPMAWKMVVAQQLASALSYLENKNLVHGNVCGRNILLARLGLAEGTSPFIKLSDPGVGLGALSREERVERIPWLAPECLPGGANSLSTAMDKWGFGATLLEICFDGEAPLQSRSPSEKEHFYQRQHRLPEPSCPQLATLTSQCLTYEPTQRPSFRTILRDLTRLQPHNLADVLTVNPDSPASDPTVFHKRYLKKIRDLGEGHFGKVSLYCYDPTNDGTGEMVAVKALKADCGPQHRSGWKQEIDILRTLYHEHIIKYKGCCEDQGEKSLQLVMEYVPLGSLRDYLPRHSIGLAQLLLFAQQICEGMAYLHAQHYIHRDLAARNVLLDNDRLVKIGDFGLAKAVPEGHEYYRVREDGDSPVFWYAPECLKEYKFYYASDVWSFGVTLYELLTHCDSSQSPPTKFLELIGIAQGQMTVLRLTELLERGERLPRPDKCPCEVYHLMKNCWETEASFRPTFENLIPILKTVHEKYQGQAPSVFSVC
Sequence of JAK1 (P23458 whole entry, species assumed): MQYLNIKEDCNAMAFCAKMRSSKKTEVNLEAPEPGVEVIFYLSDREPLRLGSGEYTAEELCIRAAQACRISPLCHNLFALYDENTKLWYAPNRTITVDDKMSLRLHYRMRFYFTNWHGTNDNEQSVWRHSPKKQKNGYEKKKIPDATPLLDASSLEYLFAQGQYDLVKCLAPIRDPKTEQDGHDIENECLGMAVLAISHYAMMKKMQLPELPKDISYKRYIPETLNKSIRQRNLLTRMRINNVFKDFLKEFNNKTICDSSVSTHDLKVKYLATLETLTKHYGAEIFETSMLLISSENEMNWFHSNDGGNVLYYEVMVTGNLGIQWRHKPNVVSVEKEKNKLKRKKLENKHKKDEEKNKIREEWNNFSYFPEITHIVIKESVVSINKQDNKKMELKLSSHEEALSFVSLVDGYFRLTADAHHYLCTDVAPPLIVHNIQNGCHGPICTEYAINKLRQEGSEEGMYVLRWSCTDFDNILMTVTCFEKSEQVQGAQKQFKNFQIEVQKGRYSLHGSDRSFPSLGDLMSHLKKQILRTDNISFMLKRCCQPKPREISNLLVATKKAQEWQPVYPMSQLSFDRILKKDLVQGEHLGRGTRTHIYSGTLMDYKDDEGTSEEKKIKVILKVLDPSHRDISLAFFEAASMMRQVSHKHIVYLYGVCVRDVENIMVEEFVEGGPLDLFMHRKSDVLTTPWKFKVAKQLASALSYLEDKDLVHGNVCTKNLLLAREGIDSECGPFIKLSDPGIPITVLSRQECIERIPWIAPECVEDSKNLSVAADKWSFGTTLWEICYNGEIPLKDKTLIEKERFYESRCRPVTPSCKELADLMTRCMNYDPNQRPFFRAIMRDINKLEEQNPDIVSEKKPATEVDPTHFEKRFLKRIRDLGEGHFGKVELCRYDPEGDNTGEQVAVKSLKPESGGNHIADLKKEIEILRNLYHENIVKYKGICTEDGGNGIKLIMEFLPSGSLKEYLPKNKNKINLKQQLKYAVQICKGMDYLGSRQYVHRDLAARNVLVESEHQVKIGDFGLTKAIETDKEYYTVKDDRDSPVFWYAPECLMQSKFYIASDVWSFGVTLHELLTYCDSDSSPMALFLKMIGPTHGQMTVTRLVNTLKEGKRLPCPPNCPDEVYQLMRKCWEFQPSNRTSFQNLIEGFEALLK

| Structure (SMILES) | IC50 (TYK2) | IC50 (JAK1) | IC50 (JAK2) | IC50 (JAK3) |
| --- | --- | --- | --- | --- |
| CCCN(Cc1cc(C)ccc1N(C)S(C)(=O)=O)c1nc(-c2cc(F)c(O)cc2CC)cc2[nH]ncc12 [Example 144, N-[2-({[6-(2-ethyl-5-fluoro-4-hydroxyphenyl)-1H-pyrazolo[4,3-c]pyridin-4-yl](propyl)amino}-methyl)-4-methylphenyl]-N-methylmethanesulfonamide] | 8730 nM | 55.3 nM | 70.7 nM | 186 nM |
| CCc1cc(O)c(F)cc1-c1cc2[nH]ncc2c(N(C)Cc2ccccc2N(CC)S(C)(=O)=O)n1 [Example 145, N-Ethyl-N-[2-({[6-(2-ethyl-5-fluoro-4-hydroxyphenyl)-1H-pyrazolo[4,3-c]pyridin-4-yl](methyl)amino}methyl)phenyl]methanesulfonamide hydrochloride] | 15.8 nM | 1 nM | 4.5 nM | 16.2 nM |
| CCc1cc(O)c(F)cc1-c1cc2[nH]nc(C(=O)NC)c2c(NCc2cc(Cl)ccc2N(C)S(C)(=O)=O)n1 [Example 6, 4-({5-chloro-2-[methyl(methyl-sulfonyl)amino]benzyl}amino)-6-(2-ethyl-5-fluoro-4-hydroxy-phenyl)-N-methyl-1H-pyrazolo[4,3-c]pyridine-3-carboxamide] | 15.3 nM | 3.1 nM | 15.8 nM | 84.9 nM |
| CCc1cc(O)c(F)cc1-c1cc2[nH]nc(C(=O)Nc3ccc(C)nc3)c2c(NCc2ccccc2N(C)S(C)(=O)=O)n1 [Example 56, 6-(2-ethyl-5-fluoro-4-hydroxy-phenyl)-4-({2-[methyl(methylsulfonyl)amino]benzyl}amino)-N-(6-methylpyridin-3-yl)-1H-pyrazolo[4,3-c]pyridine-3-carboxamide] | 19.9 nM | 6.6 nM | 26.1 nM | 135 nM |
| CCCN(c1ccccc1CNc1nc(-c2cc(F)c(O)cc2CC)cc2[nH]ncc12)S(C)(=O)=O [Example 137, N-[2-({[6-(2-Ethyl-5-fluoro-4-hydroxyphenyl)-1H-pyrazolo[4,3-c]pyridin-4-yl]amino}methyl)phenyl]-N-propylmethanesulfonamide] | 45.4 nM | < 0.1 nM | 0.3 nM | 3.3 nM |
| CCc1cc(O)ccc1-c1cc2[nH]ncc2c(N2CCc3ccc(S(=O)(=O)NCCN4CCCC4)cc3C2)n1 [Example 116, 2-[6-(2-ethyl-4-hydroxyphenyl)-1H-pyrazolo[4,3-c]pyridin-4-yl]-N-[2-(pyrrolidin-1-yl)ethyl]-1,2,3,4-tetrahydroisoquinoline-7-sulfonamide formate] | 163 nM | 3.8 nM | 10.1 nM | 23.3 nM |
| CCN(c1ncccc1CNc1nc(-c2cc(F)c(O)cc2CC(F)(F)F)cc2[nH]nc(C(=O)NC)c12)S(C)(=O)=O [Example 63, 4-[({2-[ethyl(methylsulfonyl)amino]pyridin-3-yl}methyl)amino]-6-[5-fluoro-4-hydroxy-2-(2,2,2-trifluoroethyl)phenyl]-N-methyl-1H-pyrazolo[4,3-c]pyridine-3-carboxamide] | 107 nM | 5 nM | 22.5 nM | 82.1 nM |
| CCc1cc(O)c(F)cc1-c1nc(NCc2ccccc2N(C)S(C)(=O)=O)c2c(C(=O)NC)n[nH]c2n1 [Example 93, 6-(2-Ethyl-5-fluoro-4-hydroxyphenyl)-N-methyl-4-((2-(N-methylmethylsulfonamido)benzyl)amino)-1H-pyrazolo[3,4-d]pyrimidine-3-carboxamide] | 13.9 nM | 2 nM | 8.4 nM | 27.4 nM |
| CCc1cc(O)c(F)cc1-c1cc2[nH]nc(-c3nnc(C)[nH]3)c2c(NCc2ccccc2N(C)S(C)(=O)=O)n1 [Example 165, N-[2-({[6-(2-Ethyl-5-fluoro-4-hydroxyphenyl)-3-(5-methyl-4H-1,2,4-triazol-3-yl)-1H-pyrazolo[4,3-c]pyridin-4-yl]amino}methyl)phenyl]-N-methylmethanesulfonamide] | 14.6 nM | 3.5 nM | 16.9 nM | 78 nM |
| CCc1cc(O)c(F)cc1-c1cc2[nH]ncc2c(NCc2cc(C)ccc2N(C)S(C)(=O)=O)n1 [Example 132, N-[2-({[6-(2-ethyl-5-fluoro-4-hydroxyphenyl)-1H-pyrazolo[4,3-c]pyridin-4-yl]amino}methyl)-4-methylphenyl]-N-methylmethanesulfonamide hydrochloride] | 1290 nM | 19 nM | 31.4 nM | 18.4 nM |
| CNC(=O)c1n[nH]c2cc(-c3cc(F)c(O)cc3CC(F)(F)F)nc(NCc3nccnc3N(C)S(C)(=O)=O)c12 [Example 51, 6-[5-fluoro-4-hydroxy-2-(2,2,2-trifluoroethyl)phenyl]-N-methyl-4-[({3-[methyl(methylsulfonyl)amino]pyrazin-2-yl}methyl)amino]-1H-pyrazolo[4,3-c]pyridine-3-carboxamide] | 226 nM | 3.5 nM | 20.8 nM | 66.9 nM |
| CCc1cc(O)c(F)cc1-c1cc2[nH]ncc2c(NCc2cc(Cl)ccc2N(C)S(C)(=O)=O)n1 [Example 133, N-[4-chloro-2-({[6-(2-ethyl-5-fluoro-4-hydroxyphenyl)-1H-pyrazolo[4,3-c]pyridin-4-yl]amino}methyl)phenyl]-N-methylmethanesulfonamide hydrochloride] | 249 nM | 1.2 nM | 5.9 nM | 30.5 nM |
| CCN(c1ncc(Cl)cc1CNc1nc(-c2cc(F)c(O)cc2CC(F)(F)F)cc2[nH]nc(C(N)=O)c12)S(C)(=O)=O [Example 71, 4-[({5-chloro-2-[ethyl(methylsulfonyl)amino]pyridin-3-yl}methyl)amino]-6-[5-fluoro-4-hydroxy-2-(2,2,2-trifluoroethyl)phenyl]-1H-pyrazolo[4,3-c]pyridine-3-carboxamide] | 2750 nM | 44.1 nM | 156 nM | 359 nM |
| CCc1cc(O)c(F)cc1-c1cc2[nH]nc(C(N)=O)c2c(NCc2ccc(O)cc2N(C)S(C)(=O)=O)n1 [Example 30, 6-(2-Ethyl-5-fluoro-4-hydroxyphenyl)-4-({4-hydroxy-2-[methyl(methylsulfonyl)amino]benzyl}amino)-1H-pyrazolo[4,3-c]pyridine-3-carboxamide] | 29 nM | 1 nM | 5.8 nM | 23.3 nM |
| CCN(c1ccccc1CNc1nc(-c2cc(F)c(O)cc2CC(F)(F)F)nc2[nH]nc(C(=O)NC)c12)S(C)(=O)=O [Example 103, 4-((2-(N-ethylmethylsulfonamido)-benzyl)amino)-6-(5-fluoro-4-hydroxy-2-(2,2,2-trifluoroethyl)phenyl)-N-methyl-1H-pyrazolo[3,4-d]pyrimidine-3-carboxamide] | 349 nM | 5 nM | 31 nM | 92.6 nM |

More lines, now with the values ahead:

| IC50 (TYK2) | IC50 (JAK1) | IC50 (JAK2) | IC50 (JAK3) | Structure (SMILES) |
| --- | --- | --- | --- | --- |
| 4.8 nM | 0.9 nM | 5.9 nM | 30.9 nM | CCc1cc(O)c(F)cc1-c1cc2[nH]nc(C(=O)NC)c2c(NCc2ccccc2N(C)S(C)(=O)=O)n1 [Example 19, 6-(2-ethyl-5-fluoro-4-hydroxy-phenyl)-N-methyl-4-({2-[methyl(methyl-sulfonyl)amino]benzyl}amino)-1H-pyrazolo[4,3-c]pyridine-3-carboxamide] |
| 229 nM | 8.7 nM | 36.9 nM | 207 nM | CNC(=O)c1n[nH]c2cc(-c3cc(F)c(O)cc3CC(F)(F)F)nc(NCc3cc(C)ccc3N(C)S(C)(=O)=O)c12 [Example 11, 6-[5-fluoro-4-hydroxy-2-(2,2,2-trifluoroethyl)phenyl]-N-methyl-4-({5-methyl-2-[methyl(methyl-sulfonyl)amino]benzyl}amino)-1H-pyrazolo[4,3-c]pyridine-3-carboxamide] |
| 81.3 nM | 3.5 nM | 14.8 nM | 60 nM | CN(c1ccccc1CNc1nc(-c2cc(F)c(O)cc2CC(F)(F)F)cc2[nH]nc(C(N)=O)c12)S(=O)(=O)CCCN1CCOCC1 [Example 66, 6-[5-fluoro-4-hydroxy-2-(2,2,2-trifluoroethyl)phenyl]-4-{[2-(methyl{[3-(morpholin-4-yl)propyl]sulfonyl}-amino)benzyl]amino}-1H-pyrazolo[4,3-c]pyridine-3-carboxamide] |
| 81.4 nM | 7.8 nM | 47.2 nM | 156 nM | CCS(=O)(=O)N(C)c1ccccc1CNc1nc(-c2cc(F)c(O)cc2CC(F)(F)F)cc2[nH]nc(C(N)=O)c12 [Example 85, 6-(5-fluoro-4-hydroxy-2-(2,2,2-trifluoroethyl)phenyl)-4-((2-(N-methylethyl-sulfonamido)benzyl)-amino)-1H-pyrazolo[4,3-c]pyridine-3-carboxamide] |
| 865 nM | 28.7 nM | 128 nM | 462 nM | CCN(c1ccc(C)cc1CNc1nc(-c2cc(F)c(O)cc2CC(F)(F)F)cc2[nH]nc(C(N)=O)c12)S(C)(=O)=O [Example 91, 4-({2-[ethyl(methylsulfonyl)amino]-5-methylbenzyl}amino)-6-[5-fluoro-4-hydroxy-2-(2,2,2-trifluoroethyl)phenyl]-1H-pyrazolo[4,3-c]pyridine-3-carboxamide] |
| 439 nM | 55.1 nM | 302 nM | 1070 nM | CCN(c1ccc(O)cc1CNc1nc(-c2cc(F)c(O)cc2CC(F)(F)F)cc2[nH]nc(C(N)=O)c12)S(=O)(=O)c1ccccc1 [Example 43, 4-({2-[ethyl(phenyl-sulfonyl)amino]-5-hydroxybenzyl}amino)-6-[5-fluoro-4-hydroxy-2-(2,2,2-trifluoroethyl)-phenyl]-1H-pyrazolo[4,3-c]pyridine-3-carboxamide] |
| 278 nM | 2.9 nM | 14.4 nM | 39.5 nM | CN(c1ncccc1CNc1nc(-c2cc(F)c(O)cc2CC(F)(F)F)cc2[nH]nc(C(N)=O)c12)S(C)(=O)=O [Example 62, 6-[5-fluoro-4-hydroxy-2-(2,2,2-trifluoroethyl)phenyl]-4-[({2-[methyl(methyl-sulfonyl)amino]pyridin-3-yl}methyl)amino]-1H-pyrazolo[4,3-c]pyridine-3-carboxamide] |
